Measurements taken from patent US9248114B2, “Use of 2,5-dihydroxybenzene compounds and derivatives for the treatment of hematological dyscrasias and cancer of an organ” (Action Medicines, S.L., priority 2006, dated 2016).

What was measured:
bFGF-induced fibrosis = bFGF-induced fibrosis around subcutaneously implanted gelatin sponges in rats; format: in vivo, Sprague-Dawley rats; settings: 100 μM in gelatin sponge with bFGF and heparin, subcutaneous, 7 days
Description: Sterile gelatin sponges (1 mm^3; Curaspon Dental, Clinimed Holding, Zwanenburg, The Netherlands) were subcutaneously implanted in the dorsal region of the neck in Sprague-Dawley rats after the induction of intraperitoneal anesthesia. The animals were split into two groups: group A, the sponges were moistened with 200 μl of saline solution which contained 25 μg/ml of heparin and 10 μg/ml of basic FGF (bFGF); group B, the sponges were moistened in the same solution as in group A, but which solution further contained 2,5-dihydroxybenzoate (100 μM). After 7 days, the sponges and the surrounding subcutaneous fat were removed and histologically analyzed.

rat glioma C6 cells = experiment: Rat glioma C6 cell proliferation (crystal violet staining); format: cell-based; settings: 48 h
Description: The cell line used was rat glioma C6 cells. The cells were cultured as previously described (Cuevas P et al. Neurol Res, 2005). The cells were cultured as adherent cells in Dulbecco's modified Eagle's medium, supplemented with 7.5% (v/v) of fetal bovine serum, 10 μg/ml of streptomycin and 10 units/ml of penicillin. The tumor cells were seeded in 24-well plates at a density of 10,000 cells/well, and were incubated at 37° C. in a humidified chamber with 5% CO2. Once adhered, the cells were treated or not (controls) with 2,5-dihydroxybenzoate at 100, 200, 500 or 1000 μM and they were allowed to proliferate for 48 h. After this time the glioma cell proliferation was evaluated by means of staining the fixed cells with crystal violet. The number of cells is proportional to the amount of retained dye, which was spectrophotometrically determined by measuring the absorbance at 595 nm once the dye was extracted from the cells.
(§1) The cell line used was the C6 cell line and the experiment was carried out as described in Example 2. Once adhered, the cells were treated or not (controls) with increasing concentrations of 2,5-DHC (10, 25, 50 and 100 μM) and they were allowed to proliferate for 48 h. After this time the glioma cell proliferation was evaluated by means of staining the fixed cells with crystal violet. The number of cells is proportional to the amount of retained dye, which was determined spectrophotometrically by measuring absorbance at 595 nm once the dye was extracted from the cells.
as §1, with “examples 2 and 3.” for “Example 2.”, “(5A-2HBS) (500 μM) or (2A-5HBS) (500” for “increasing concentrations of 2,5-DHC (10, 25, 50 and 100”, “measuring the” for “measuring”

[1] = target: T1, fibroblast growth factor-1 (FGF-1) (Homo sapiens, UniProt P05230); experiment: Mitogenesis induced by FGF-1 in quiescent Balb/c 3T3 fibroblast cultures; format: cell-based; settings: quiescent Balb/c 3T3 fibroblasts
T1 sequence (P05230 whole entry, species assumed): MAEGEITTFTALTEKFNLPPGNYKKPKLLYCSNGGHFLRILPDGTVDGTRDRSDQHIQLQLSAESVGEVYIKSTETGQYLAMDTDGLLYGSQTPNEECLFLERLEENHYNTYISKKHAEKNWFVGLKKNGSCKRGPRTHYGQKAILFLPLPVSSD
Description: The evaluated compounds were used in the form of potassium salt, except in the first case which used calcium salt. The experiments were carried out as described in Fernandez-Tornero C et al. J Biol Chem, 2003.

[2] = target: T1, fibroblast growth factor-1 (FGF-1); experiment: Crystal diffraction of complexes with FGF-1; settings: co-crystal, electron density contoured at 1σ; acetoxyl groups conserved on binding
Description: Based on the crystal diffraction of the FGF-1:2-acetoxy-5-hydroxybenzene sulfonic acid, FGF-1:5-acetoxy-2-hydroxybenzene sulfonic acid and FGF-1:2,5-diacetoxybenzene sulfonic acid complexes, the structures of the complexes were calculated and represented. FIGS. 13, 14 and 15, which show the surface of the dyed protein according to its electrostatic potential (light grey, negative charge; dark grey, positive charge; white, regions with no charge), show the manner in which 2-acetoxy-5-hydroxybenzene sulfonic acid, 5-acetoxy-2-hydroxybenzene sulfonic acid and 2,5-diacetoxybenzene sulfonic acid interact, respectively, with FGF-1.

[3] = tested on: tumor cells of subcutaneous gliomas; experiment: Apoptosis in sections of established subcutaneous gliomas in rats; format: in vivo; settings: 100 mg/kg/day i.p. for 10 days
Excerpt: Tumor cells elude the programmed cell death process or apoptosis that normal cells experience. Apoptosis induction in tumor cells is one way to confront the development of a tumor. To evaluate the effect of potassium 2,5-dihydroxybenzene sulfonate […] on tumor cell apoptosis, 6 μm thick sections of the subcutaneous gliomas described in example 4 were made. The sections were stained with hematoxylin and eosin and observed at a magnification of 313 times using immersion oil. In these conditions, cell apoptosis is shown by the existence of apoptotic bodies appearing as strongly chromogenic granules in the cell nucleus which is frequently fragmented.

[4] = tested on: human prostate cancer PC-3 cells; experiment: Subcutaneous PC-3 prostate tumor implantation model in athymic mice; format: in vivo, athymic mice (Nu/Nu); settings: 100 mg/kg daily i.p. for 15 days
Description: 5×10^6 human prostate cancer PC-3 cells were subcutaneously injected in male athymic mice (Nu/Nu) of 6-8 weeks of age and weighing 20-26 g. Ten days after the implantation of the tumor cells, the mice were randomly split into two groups: one of them received a daily injection of potassium 2,5-diacetoxybenzene sulfonate (DABS) by intraperitoneal route at a dose of 100 mg/kg dissolved in saline (0.9% NaCl) whereas the other group received a daily injection of carrier (saline). The treatments were administered for 15 days. The volumes of the tumors induced by the implantation of PC-3 cells were measured through the skin on alternating days using a Vernier caliper. The volume was calculated using the formula V=(D×2d)/2, where D is the larger diameter in mm, d is the smaller diameter in mm and V is the volume in mm3. At the end of treatment, the mice were sacrificed and the tumors were weighed.

[5] = tested on: subcutaneous gliomas (rat C6 glioma cells); experiment: Progression of established subcutaneous C6 gliomas in rats; format: in vivo; settings: i.p. 100 mg/kg/day for 10 days; for average size (volume) of subcutaneous gliomas: treatment started 5 days after implantation
Description: Rat C6 glioma cells were cultured as previously described (Cuevas P et al. Neurol Res, 2005). The C6 cells cultured to confluence in 75 cm^2 flasks were removed and implanted under the abdominal skin in anesthetized rats. The existence of a tumor in the implantation area was observed five days after the implantation of the tumor cells. Only the rats in which the existence of a tumor was observed were randomly assigned to be treated with daily intraperitoneal injections of 2,5-dihydroxybenzene sulfonate (DHBS; 100 mg/kg/day), 2,5-diacetoxybenzene sulfonate (DABS; 100 mg/kg/day) or the carrier (0.9% NaCl). After 10 days of treatment, the subcutaneous gliomas were removed and their volume was calculated according to the formula V=4/3π·(L/2)·(A/2)^2 (in mm^3) where L is the larger diameter and A is the smaller diameter, both expressed in mm.

Compound | rat glioma cell proliferation (rat glioma C6 cells; 500 μM) | mitogenesis induced by FGF-1 [1] | binding site on FGF-1 in the crystal complex [2] | average size (volume) of subcutaneous gliomas [5] | other results
O=C(O)c1cc(O)ccc1O [2,5-dihydroxybenzoate, 2,5-dihydroxybenzoic acid] |  |  |  |  | bFGF-induced fibrosis (fibroblasts in septa of connective tissue of adipose tissue) (bFGF-induced fibrosis): reduces bFGF-induced fibrosis; rat glioma C6 cell proliferation, significance of the effect (rat glioma C6 cells; 500 μM): statistically significant; rat glioma C6 cell proliferation, significance of the effect (rat glioma C6 cells; 1000 μM): statistically significant; rat glioma C6 cell proliferation (absorbance at 595 nm) (rat glioma C6 cells; 100, 200, 500 or 1000 μM): inhibited rat glioma C6 cell proliferation in a concentration-dependent manner
CC(=O)Oc1ccc(O)cc1S(=O)(=O)[O-].[K+] [2A-5HBS, potassium 2-acetoxy-5-hydroxybenzene sulfonate] | caused the inhibition of rat glioma cell proliferation | inhibition of mitogenesis | occupy a site that is very close to the one that has been described occupied by 2,5-dihydroxybenzene sulfonic acid |  | 
CC(=O)Oc1ccc(O)c(S(=O)(=O)[O-])c1.[K+] [5A-2HBS, potassium 5-acetoxy-2-hydroxybenzene sulfonate] | caused the inhibition of rat glioma cell proliferation | inhibition of mitogenesis | occupy a site that is very close to the one that has been described occupied by 2,5-dihydroxybenzene sulfonic acid |  | 
CC(=O)Oc1ccc(OC(C)=O)c(S(=O)(=O)[O-])c1.[K+] [DABS, potassium 2,5-diacetoxybenzene sulfonate] |  | inhibition of mitogenesis | occupy a site that is very close to the one that has been described occupied by 2,5-dihydroxybenzene sulfonic acid | even less | tumor cells in apoptosis in glioma sections (hematoxylin and eosin) [3]: a large number of tumor cells in apoptosis; weight of the extracted tumor when treatment ended [4]: significant reduction; tumor growth (tumor volume measured through the skin) ([4]; started 10 days after implantation): significantly reduced; probability of being tumor-free (χ2 test) versus group treated with DHBS [5]: greater probability of being tumor-free
O=S(=O)([O-])c1cc(O)ccc1O.[K+] [DHBS, potassium 2,5-dihydroxybenzene sulfonate, reference compound] |  | inhibition of the mitogenesis |  | less than that of the rats treated with carrier | 
